In US8383637B2, “2-amino-quinazoline derivatives useful as inhibitors of β-secretase (BACE)” (Jansssen Pharmaceutica N.V., priority 2004, dated 2013):
Where “and” joins values, the source holds several entries; their conditions need not be identical. Identical values can stand only once. Like-named read-outs stand apart in the source and are kept apart here.

Assays:
[1] = target: T1, β-secretase(BACE) (Homo sapiens, UniProt P56817); assay: BACE Assay-2 (FS1 substrate, IC50 and Ki); type: biochemical; details: procedure of Example 159, FS1 substrate; read-out: Ki μM (159)
T1 construct: purchased Panvera
T1 sequence (P56817 46-501): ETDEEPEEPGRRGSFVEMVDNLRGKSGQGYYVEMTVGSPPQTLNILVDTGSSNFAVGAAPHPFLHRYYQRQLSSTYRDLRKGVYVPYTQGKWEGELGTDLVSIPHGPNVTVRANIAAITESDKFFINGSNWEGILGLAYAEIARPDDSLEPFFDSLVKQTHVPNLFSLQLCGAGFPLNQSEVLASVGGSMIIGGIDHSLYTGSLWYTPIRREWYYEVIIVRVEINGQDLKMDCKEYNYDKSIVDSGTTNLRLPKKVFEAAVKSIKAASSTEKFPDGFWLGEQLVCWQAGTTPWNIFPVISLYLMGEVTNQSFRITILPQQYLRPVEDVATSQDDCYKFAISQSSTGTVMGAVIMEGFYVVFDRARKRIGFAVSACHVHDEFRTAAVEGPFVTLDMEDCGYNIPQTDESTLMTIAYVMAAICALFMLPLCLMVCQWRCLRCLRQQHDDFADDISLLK
Procedure: The FS1-substrate stock solution was prepared in DMSO as a 10 mg/mL solution. The FS1-substrate working solution was prepared by diluting the 10 mg/mL stock solution with substrate assay buffer to a final concentration of 300 μg/mL. The β-secretase (BACE) working solution was prepared by diluting a 0.83 mg/mL BACE stock solution with enzyme assay buffer to a final concentration of 4 μg/mL.
Test compounds were dissolved in DMSO at 10 mM.
The procedure for this assay was as follows: 15 μL of BACE working solution was pipetted into each well of a 96-well plate. To each well was then pipetted 2 μL of test compound at the selected concentration. Test compound and BACE were then mixed with a pipettor and incubated for 20 min at room temperature. To each well was then added 10 μL of the FS1 substrate working solution.
The procedure for the positive control was as follows: 15 μL of BACE working solution was pipetted into each well to be used as a positive control. To each well was then pipetted 2 μL of vehicle. Vehicle and BACE were then mixed with a pipettor and incubated for 20 min at room temperature. To each well was then added 10 μL of the FS1 substrate working solution.
For test compounds, measured at multiple concentrations, the measured T0 and T60 values were used to calculate an IC50 value using Graphpad Software (or PIR). For test compounds, Ki inhibition was determined as follows: For each compound concentration and positive control, rate of cleavage of substrate (Vi, where i=compound concentration in μM) was determined as Δ Fluorescence/Δ time (min). Cleavage rates (Vi) were plotted as a function of inhibitor concentration in μM [I]. The Ki was then determined by fitting the following equation to the graph of [I] vs Vi Y=aVmax/(50+24*(1+X/Ki)),

[2] = target: T1, β-secretase(BACE); assay: BACE FS1% Inhibition Assay; type: biochemical; details: FS1 substrate
In short: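 Percent inhibition at each tested concentration, referenced to enzyme-free blank and vehicle-only positive control. Reaction: compound and BACE (4 μg/mL working stock) mixed 20 min at room temperature before FS1 substrate (300 μg/mL working stock), then 1 h at room temperature.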

[3] = 0.3 μM test compound, read-out: % Inhibition (FS) 0.3 μM
[4] = 1 μM test compound, read-out: % Inhibition (FS) 1 μM
[5] = 3 μM test compound, read-out: % Inhibition (FS) 3 μM
[6] = 0.3 μM test compound, read-out: % Inhibition (FS)
[7] = 1 μM test compound, read-out: % Inhibition (FS)
[8] = 3 μM test compound, read-out: % Inhibition (FS)

| Compound | Ki [1] | inhibition at 0.3 µM [2, 3] [%] | inhibition at 1 µM [2, 4] [%] | inhibition at 3 µM [2, 5] [%] | further results |
| --- | --- | --- | --- | --- | --- |
| CN(C(=O)c1cccc(CN2Cc3cc(Oc4cccc(-c5ccccc5)c4)ccc3N=C2N)c1)C1CCCCC1 [Compound 231] | 3.8 µM | < 30 | 71 | 75 |  |
| CN(C(=O)c1cccc(CN2Cc3cc(-c4ccccc4[N+](=O)[O-])ccc3N=C2N)c1)C1CCCCC1 [Compound 333] | 0.49 µM | < 30 | < 30 | 78 |  |
| Cc1cccc(C)c1-c1ccc2c(c1)CN(Cc1cccc(C(=O)N(C)C3CCCCC3)c1)C(N)=N2 [Compound 262] | 0.66 µM | 39 | 63 | 95 |  |
| CC(C)CCC(=O)NCCN1Cc2cc(-c3ccccc3F)ccc2N=C1N [Compound 647] | 0.033 µM | 79 | 100 | 113 |  |
| CN(C(=O)c1cccc(CN2Cc3cc(-c4csc5ccccc45)ccc3N=C2N)c1)C1CCCCC1 [Compound 265] | 1.1 µM | < 30 | 55 | 92 |  |
| NC1=Nc2ccc(Oc3ccccc3)cc2CN1CCNC(=O)Nc1ccccc1 [Compound 205] | 0.32 µM | < 30 | 47 | 90 |  |
| COC1CCCC(C(=O)NCCN2Cc3cc(-c4ccccc4Cl)ccc3N=C2N)C1 (stereo not drawn) [Compound 692] | 0.13 µM |  |  |  | inhibition at 0.3 µM [2, 6]: 46%; inhibition at 1 µM [2, 7]: 90%; inhibition at 3 µM [2, 8]: 116% |
| Cc1ccccc1-c1ccc2c(c1)CN(CCNC(=O)C1CCCC1)C(N)=N2 [Compound 657, Cyclopentanecarboxylic acid [2-(2-amino-6-o-tolyl-4H-quinazolin-3-yl)-ethyl]-amide] | 0.032 µM | 88 | 103 | 111 |  |
| CN(C(=O)c1cccc(CN2Cc3cc(-c4ccccc4F)ccc3N=C2N)c1)C1CCCCC1 [Compound 334] | 0.068 µM | 74 | 103 | 118 |  |
| Cc1ccccc1Oc1ccc2c(c1)CN(Cc1cccc(C(=O)N(C)C3CCCCC3)c1)C(N)=N2 [Compound 293] | 1.1 µM | < 30 | 44 | 81 |  |
| COc1cccc(OC)c1-c1ccc2c(c1)CN(Cc1cccc(C(=O)N(C)C3CCCCC3)c1)C(N)=N2 [Compound 264] | 0.78 µM | 26 | 63 | 92 |  |
| CN(C(=O)c1cccc(CN2Cc3cc(-c4ccccc4C(N)=O)ccc3N=C2N)c1)C1CCCCC1 [Compound 173] | 0.47 µM | < 30 | 53 | 76 |  |
| NC1=Nc2ccc(-c3ccccc3Cl)cc2CN1CCNC(=O)C1CCCCC1 [Compound 536] | 0.086 µM | 61 | 83 | 118 |  |
| COc1ccccc1-c1ccc2c(c1)CN(CCC(=O)NC1CCCCC1)C(N)=N2 [Compound 610] | 0.076 µM | 75 | 106 | 119 |  |

Continued, in another order:

| Ki [1] | inhibition at 0.3 µM [2, 3] [%] | inhibition at 1 µM [2, 4] [%] | inhibition at 3 µM [2, 5] [%] | Compound | further results |
| --- | --- | --- | --- | --- | --- |
| 0.5 µM |  |  | 85 | CN(C(=O)c1cccc(C(c2ccccc2)N2Cc3cc(Oc4ccccc4)ccc3N=C2N)c1)C1CCCCC1 (stereo not drawn) [Compound 136] | inhibition at 10 µM ([2]; 10 μM test compound, read-out: % Inhibition (FS) 10 μM): 133% |
| 0.21 µM | 32 | 71 | 111 | CCCCCC(CCC(=O)NC1CCCCC1)N1Cc2cc(Oc3ccccc3)ccc2N=C1N (stereo not drawn) [Compound 149] |  |
| 0.061 µM |  |  |  | CN(C(=O)CC[C@@H](C1CCCCC1)N1Cc2cc(Oc3ccccc3)ccc2N=C1N)[C@H]1CC[C@@H](C(N)=O)CC1 [Compound 764, 4-{[4-(2-Amino-6-phenoxy-4H-quinazolin-3-yl)-4S-cyclohexyl-butyryl]-methyl-amino}-S,R-cyclohexanecarboxylic acid amide] | inhibition at 0.3 µM [2, 6]: 87%; inhibition at 1 µM [2, 7]: 110%; inhibition at 3 µM [2, 8]: 116% |
| 0.016 µM | 114 | 118 | 125 | CC(C)[C@H](CNC(=O)C1CCCCC1)N1Cc2cc(Oc3ccccc3)ccc2N=C1N [Compound 561] |  |
| 0.298 µM |  |  |  | CN(C(=O)CC[C@@H](C1CCOCC1)N1Cc2cc(Oc3ccccc3)ccc2N=C1N)[C@H](COCc1ccccc1)C(=O)O [Compound 784, 2-{[4-(2-Amino-6-phenoxy-4H-quinazolin-3-yl)-4S-(tetrahydro-pyran-4-yl)-butyryl]-methyl-amino}-3R-benzyloxy-propionic acid] | inhibition at 0.3 µM [2, 6]: 107%; inhibition at 1 µM [2, 7]: 108%; inhibition at 3 µM [2, 8]: 120% |
| 0.029 µM and 0.022 µM |  |  |  | CN(C(=O)CC[C@@H](C1CCCCC1)N1Cc2cc(Oc3ccccc3)ccc2N=C1N)C1CCC(C(=O)O)CC1 (stereo partly drawn) [Compound 714, 4-{[4-(2-Amino-6-phenoxy-4H-quinazolin-3-yl)-4-(S)-cyclohexyl-butyryl]-methyl-amino}-cyclohexanecarboxylic acid] | % Inhibition (FS) ([2]; 0.3 μM test compound, 0.3 µM): 98%; inhibition at 0.3 µM [2, 6]: 100%; % Inhibition (FS) ([2]; 1 μM test compound, 1 µM): 129%; inhibition at 1 µM [2, 7]: 126%; % Inhibition (FS) ([2]; 3 μM test compound): 138%; inhibition at 3 µM [2, 8]: 138% |
| 0.1 µM | 34 | 85 | 113 | CC1CCCCC1NC(=O)CCN1Cc2cc(Oc3ccccc3)ccc2N=C1N (stereo not drawn) [Compound 511] |  |
| 0.027 µM |  |  |  | CCCC(CNC(=O)C1CCCCC1)N1Cc2cc(Oc3ccccc3)ccc2N=C1N (stereo not drawn) [Compound 601] | % Inhibition (FS) 0.3 μM ([2]; 0.3 μM test compound, 0.3 µM): 105%; % Inhibition (FS) 1 μM ([2]; 1 μM test compound, 1 µM): 115%; % Inhibition (FS) 3 μM ([2]; 3 μM test compound, 3 µM): 121% |
| 0.19 µM | < 30 | 70 | 104 | CN(C(=O)CCN1Cc2cc(Oc3ccccc3)ccc2N=C1N)C1C2CC3CC(C2)CC1C3 (stereo not drawn) [Compound 618] |  |
| 0.168 µM |  |  |  | CCOC(=O)C1CCC(N(C)C(=O)CCC(C2CCOCC2)N2Cc3cc(Oc4ccccc4)ccc3N=C2N)CC1 (stereo not drawn) [Compound 742] | inhibition at 0.3 µM [2, 6]: 17%; inhibition at 1 µM [2, 7]: 63%; inhibition at 3 µM [2, 8]: 101% |
| 0.45 µM |  |  |  | CN(CCC#N)C(=O)CC[C@@H](C1CCCCC1)N1Cc2cc(-c3ccccc3F)ccc2N=C1N [Compound 725] | inhibition at 0.3 µM [2, 6]: 33%; inhibition at 1 µM [2, 7]: 74%; inhibition at 3 µM [2, 8]: 126% |
| 0.005 µM |  |  |  | CN(C(=O)CC[C@@H](C1CCCCC1)N1Cc2cc(Oc3ccccc3)ccc2N=C1N)[C@H]1CC[C@@H](C(=O)O)CC1 [Compound 739, (S)-enantiomer of 4-cis-{[4-(2-Amino-6-phenoxy-4H-quinazolin-3-yl)-4-cyclohexyl-butyryl]-methyl-amino}-cyclohexanecarboxylic acid] | inhibition at 0.3 µM [2, 6]: 99%; inhibition at 1 µM [2, 7]: 104%; inhibition at 3 µM [2, 8]: 105% |
| 0.173 µM |  |  |  | NC1=Nc2ccc(Oc3ccccc3)cc2CN1[C@@H](CCC(=O)N[C@@H](CO)C(=O)O)C1CCOCC1 [Compound 771] | inhibition at 0.3 µM [2, 6]: 46%; inhibition at 1 µM [2, 7]: 79%; inhibition at 3 µM [2, 8]: 105% |
| 0.29 µM | 38 | 64 | 109 | CCC(c1cccc(C(=O)N(C2CCCCC2)C2CCCCC2)c1)N1Cc2cc(Oc3ccccc3)ccc2N=C1N (stereo not drawn) [Compound 419] |  |
